# Test results taken from the supplement of paper PMC10307832.
# Legend:
# Assay in all cases: relative viability (nuclei count vs DMSO), 5 days (fraction); higher = more cells survive
# [1] = compound: C1CSC2=C(C(=O)N1)SC3=C2C=C(C=C3)O [kb NB 142-70] + Nc1nc2[nH]cc(CCc3ccc(C(=O)N[C@@H](CCC(=O)O)C(=O)O)cc3)c2c(=O)[nH]1 [Pemetrexed] (partner 0.2 µM)
# Outline: (§1)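 Lung cancer cell lines in 1536-well plates were dosed by pin tool the day after seeding, either with one drug alone or with a fixed anchor-drug dose plus five library-drug doses (not always all listed) in √10 steps. After 5 days, cells were fixed and their nuclei stained in one step (final 0.05% Triton X-100, 1% formaldehyde, 1 ug/ml Hoechst), then counted on 4× images. Relative viability is the nuclei count in treated wells divided by that in vehicle wells. Values are medians of duplicate plates.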
# [2] = compound: NCC(=O)Nc1ccc(-n2nc(C(F)(F)F)cc2-c2ccc3c(ccc4ccccc43)c2)cc1 + N=C(N)NC(=N)NCCc1ccccc1 [Phenformin] (partner 250 µM)
# Outline: as §1
# [3] = compound: C1CSC2=C(C(=O)N1)SC3=C2C=C(C=C3)O [kb NB 142-70] + CC(C)C[C@H](NC(=O)[C@H](Cc1ccccc1)NC(=O)c1cnccn1)B(O)O [Bortezomib] (partner 0.002 µM)
# Outline: as §1
# [4] = compound: C1CSC2=C(C(=O)N1)SC3=C2C=C(C=C3)O [kb NB 142-70] + CC1(C)CCC(c2ccc(Cl)cc2)=C(CN2CCN(c3ccc(C(=O)NS(=O)(=O)c4ccc(N[C@H](CCN5CCOCC5)CSc5ccccc5)c(S(=O)(=O)C(F)(F)F)c4)cc3)CC2)C1 [Navitoclax] (partner 0.5 µM)
# Outline: as §1
# [5] = compound: NCC(=O)Nc1ccc(-n2nc(C(F)(F)F)cc2-c2ccc3c(ccc4ccccc43)c2)cc1 + Nc1nc2[nH]cc(CCc3ccc(C(=O)N[C@@H](CCC(=O)O)C(=O)O)cc3)c2c(=O)[nH]1 [Pemetrexed] (partner 0.2 µM)
# Outline: as §1
Cell Line,relative viability ([1]; first compound 0.1 µM),relative viability ([1]; first compound 1 µM),relative viability ([1]; first compound 3.162 µM),relative viability ([2]; first compound 0.02 µM),relative viability ([2]; first compound 0.06325 µM),relative viability ([2]; first compound 0.2 µM),relative viability ([2]; first compound 0.6325 µM),relative viability ([2]; first compound 2 µM),relative viability ([3]; first compound 0.1 µM),relative viability ([3]; first compound 1 µM),relative viability ([3]; first compound 3.162 µM),relative viability ([4]; first compound 0.1 µM),relative viability ([4]; first compound 1 µM),relative viability ([4]; first compound 3.162 µM),relative viability ([5]; first compound 0.02 µM),relative viability ([5]; first compound 0.06325 µM),relative viability ([5]; first compound 0.2 µM),relative viability ([5]; first compound 0.6325 µM),relative viability ([5]; first compound 2 µM)
NCI-H2087,0.569,0.681,0.527,0.455,0.583,0.441,0.48,0.47,0.821,0.88,0.755,1.06,1.11,0.771,0.619,0.685,0.681,0.639,0.718
NCI-H2126,0.666,0.702,0.762,0.515,0.559,0.5,0.518,0.539,1.11,1.14,1.12,0.853,0.843,0.849,0.667,0.714,0.736,0.724,0.69
NCI-H2228,0.375,0.376,0.24,0.432,0.484,0.352,0.266,0.31,1.08,0.689,0.303,0.853,0.992,0.244,0.375,0.354,0.377,0.358,0.398
NCI-H2347,0.453,0.449,0.426,0.51,0.394,0.547,0.386,0.281,1.03,0.808,1.07,0.867,0.77,0.608,0.403,0.421,0.409,0.432,0.496
NCI-H2405,1.11,0.995,0.523,0.402,0.399,0.416,0.38,0.475,0.969,0.993,1.01,0.966,0.863,0.679,1.04,1.04,1.26,1.04,1.16
NCI-H3122,0.2,0.21,0.289,0.37,0.432,0.364,0.386,0.377,1.09,1.06,1.03,0.987,1.04,0.972,0.194,0.208,0.204,0.187,0.241
PC-3 [JPC-3],1.11,1,0.559,0.497,0.486,0.439,0.485,0.492,0.8,0.83,0.898,0.745,0.807,0.871,1.2,1.24,1.08,1.2,1.18
PC-14,0.134,0.148,0.139,0.553,0.64,0.543,0.57,0.642,0.896,0.932,0.82,0.977,1.06,0.96,0.131,0.136,,0.131,0.113
RERF-LC-KJ,0.461,0.477,0.417,0.41,0.458,0.412,0.409,0.403,1.18,1.29,0.946,1.05,0.762,0.468,0.493,0.402,0.462,0.447,0.466
SK-LU-1,0.958,0.954,0.412,0.514,0.584,0.617,0.502,0.55,1.19,1.05,0.839,0.747,0.642,0.178,0.992,0.956,1.11,0.902,0.989
SW 1573,0.81,0.744,0.36,0.394,0.356,0.383,0.401,0.366,1.18,0.967,0.322,0.954,0.878,0.561,0.847,0.805,0.81,0.796,0.75
